According to ChEMBL document CHEMBL1255416, “Genetic and biochemical characterization of TRU-1, the endogenous class C beta-lactamase from Aeromonas enteropelogenes” (Antimicrob Agents Chemother, 2010):
pKi: −log10 of the molar value. Converted amounts (≈) assume the structure as drawn.

Key:
[1] = system: Aeromonas enteropelogenes; assay: Activity of Aeromonas enteropelogenes Beta-lactamase TRU1
Escherichia coli [2] = assay: Antimicrobial activity against Escherichia coli TOP10; assay type: functional
Aeromonas caviae [3] = assay: Activity of Aeromonas caviae Beta-lactamase CAV1
[4] = system: Aeromonas enteropelogenes; assay: Antimicrobial activity against Aeromonas enteropelogenes M1 hyperproducing beta-lactamase AmpC; assay type: functional
[5] = system: Aeromonas enteropelogenes; assay: Ratio of Kcat Km for Aeromonas enteropelogenes Beta-lactamase TRU1
Aeromonas caviae [6] = assay: Ratio of Kcat Km for Aeromonas caviae Beta-lactamase CAV1
Escherichia coli K-12 [7] = assay: Activity of Escherichia coli K-12 Beta-lactamase AmpC
Escherichia coli K-12 [8] = assay: Ratio of Kcat Km for Escherichia coli K-12 Beta-lactamase AmpC
[9] = system: Aeromonas enteropelogenes; assay: (§1) Inhibition of Aeromonas enteropelogenes Beta-lactamase TRU1
[10] = system: Aeromonas enteropelogenes; assay: Activity of Aeromonas enteropelogenes Beta-lactamase TRU1 assessed as steady state compound hydrolysis rate
[11] = system: Aeromonas enteropelogenes; assay: Ratio of Kcat Km for Aeromonas enteropelogenes Beta-lactamase TRU1 assessed as steady state compound hydrolysis rate
[12] = system: Aeromonas enteropelogenes; assay: Antimicrobial activity against Aeromonas enteropelogenes ATCC 49803 producing endogenous class C beta-lactamase TRU-1; assay type: functional
Escherichia coli [13] = assay: Antimicrobial activity against Escherichia coli NI540 carrying cloned class C beta-lactamase TRU-1 gene; assay type: functional
[14] = as §1

SMILES | Km [1] [µM] | kcat [1] [s⁻¹] | MIC (Escherichia coli [2]) [µg/mL] | Km (Aeromonas caviae [3]) [µM] | kcat (Aeromonas caviae [3]) [s⁻¹] | MIC [4] [µg/mL] | kcat/Km [5] | kcat/Km (Aeromonas caviae [6]) | Km (Escherichia coli K-12 [7]) [µM] | kcat (Escherichia coli K-12 [7]) [s⁻¹] | kcat/Km (Escherichia coli K-12 [8]) | Km [9] [µM] | Km [10] [µM] | kcat [10] [s⁻¹] | kcat/Km [11] [×10³ /M/s] | MIC [12] [µg/mL] | MIC (Escherichia coli [13]) [µg/mL] | pKi [14]
CO/N=C(\C(=O)N[C@@H]1C(=O)N2C(C(=O)[O-])=C(C[N+]3(C)CCCC3)CS[C@H]12)c1csc(N)n1 | 360 | 9.4 | 0.03 (≈ 0.0624 µM) | 690 | 2.5 | 2 (≈ 4.16 µM) | 2.6 ×10⁴ /M/s | 3.6 ×10³ /M/s |  |  |  |  |  |  |  |  |  | 
CC1(C)S[C@@H]2[C@H](NC(=O)[C@H](N)c3ccccc3)C(=O)N2[C@H]1C(=O)O | 0.72 | 0.63 |  |  |  |  | 8.8 ×10⁵ /M/s |  | 3.5 | 4.2 | 1.2 ×10⁶ /M/s |  |  |  |  |  |  | 
CC1=C(C(=O)O)N2C(=O)[C@@H](NC(=O)[C@H](N)c3ccccc3)[C@H]2SC1 | 17 | 160 |  |  |  |  | 9.3 ×10⁶ /M/s |  |  |  |  |  |  |  |  |  |  | 
CO/N=C(\C(=O)N[C@@H]1C(=O)N2C(C(=O)O)=C(COC(N)=O)CS[C@H]12)c1ccco1 |  | 0.042 |  |  |  |  | 3.8 ×10⁶ /M/s |  | 0.15 | 0.15 | 1 ×10⁶ /M/s |  |  |  |  |  |  | 
CO/N=C(\C(=O)N[C@@H]1C(=O)N2C(C(=O)O)=C(CSc3nc(=O)c(O)nn3C)CS[C@H]12)c1csc(N)n1 |  | 0.042 |  |  |  |  | 7 ×10⁵ /M/s |  |  |  |  | 6 |  |  |  |  |  | 
Cc1nnc(SCC2=C(C(=O)O)N3C(=O)[C@@H](NC(=O)Cn4cnnn4)[C@H]3SC2)s1 | 120 | 0.55 |  |  |  |  | 4.6 ×10³ /M/s |  |  |  |  |  | 80 | 0.25 | 3.1 |  |  | 
O=C(Cc1cccs1)N[C@@H]1C(=O)N2C(C(=O)[O-])=C(C[n+]3ccccc3)CS[C@H]12 | > 600 | > 100 |  | 770 | 300 |  | 1.7 ×10⁵ /M/s | 3.9 ×10⁵ /M/s | 4 | 38 | 9.5 ×10⁶ /M/s |  |  |  |  |  |  | 
CC1(C)S[C@@H]2[C@H](NC(=O)[C@H](N)c3ccc(O)cc3)C(=O)N2[C@H]1C(=O)O [AMOXICILLIN] |  |  | 2 (≈ 5.47 µM) |  |  | 4 (≈ 10.9 µM) |  |  |  |  |  |  |  |  |  | 2 (≈ 5.47 µM) | 32 (≈ 87.6 µM) | 
C[C@H]1[C@H](NC(=O)/C(=N\OC(C)(C)C(=O)O)c2csc(N)n2)C(=O)N1S(=O)(=O)O [AZTREONAM] | > 500 |  |  |  |  | 0.125 (≈ 0.287 µM) |  |  |  |  |  |  |  |  |  |  |  | 
CO/N=C(\C(=O)N[C@@H]1C(=O)N2C(C(=O)O)=C(COC(C)=O)CS[C@H]12)c1csc(N)n1 [CEFOTAXIME] |  | 0.015 | 0.06 (≈ 0.132 µM) | 0.1 | 0.2 | 32 (≈ 70.3 µM) | 1.7 ×10⁷ /M/s | 2 ×10⁶ /M/s | 1.7 | 0.17 | 1 ×10⁵ /M/s |  |  |  |  | 0.032 (≈ 0.0703 µM) | 8 (≈ 17.6 µM) | 
CO[C@@]1(NC(=O)Cc2cccs2)C(=O)N2C(C(=O)O)=C(COC(N)=O)CS[C@@H]21 [CEFOXITIN] |  | 0.88 | 4 (≈ 9.36 µM) | 0.4 | 0.5 | 32 (≈ 74.9 µM) | 3.5 ×10⁷ /M/s | 1.3 ×10⁶ /M/s | 0.65 | 0.2 | 3 ×10⁵ /M/s | 0.025 |  |  |  | 8 (≈ 18.7 µM) | 128 (≈ 299 µM) | 
CO/N=C(\C(=O)N[C@@H]1C(=O)N2C(C(=O)[O-])=C(C[n+]3cccc4c3CCC4)CS[C@H]12)c1csc(N)n1 [CEFPIROME] | 85 | 23 | 0.03 (≈ 0.0583 µM) |  |  | 4 (≈ 7.77 µM) | 2.7 ×10⁵ /M/s |  |  |  |  |  |  |  |  | 0.125 (≈ 0.243 µM) | 0.5 (≈ 0.972 µM) | 
CC(C)(O/N=C(\C(=O)N[C@@H]1C(=O)N2C(C(=O)[O-])=C(C[n+]3ccccc3)CS[C@H]12)c1csc(N)n1)C(=O)O [CEFTAZIDIME] |  | 0.11 | 0.125 (≈ 0.229 µM) | 0.6 | 0.2 | 16 (≈ 29.3 µM) | 9.2 ×10⁵ /M/s | 3.3 ×10⁵ /M/s |  |  |  | 0.12 |  |  |  | 0.125 (≈ 0.229 µM) | 8 (≈ 14.6 µM) | 
CC(=O)OCC1=C(C(=O)O)N2C(=O)[C@@H](NC(=O)Cc3cccs3)[C@H]2SC1 [CEPHALOTHIN] | 45 | 470 | 4 (≈ 10.1 µM) | 500 | 540 | > 256 | 1 ×10⁷ /M/s | 1.1 ×10⁶ /M/s | 42 | 300 | 7 ×10⁶ /M/s |  |  |  |  | > 256 | 256 (≈ 646 µM) | 
C[C@@H](O)[C@H]1C(=O)N2C(C(=O)O)=C(SCCNC=N)C[C@H]12 [IMIPENEM ANHYDROUS] | > 500 |  |  |  |  | 0.125 (≈ 0.418 µM) |  |  |  |  |  |  |  |  |  | 0.125 (≈ 0.418 µM) | 0.25 (≈ 0.835 µM) | 
CC1(C)S[C@@H]2[C@H](NC(=O)Cc3ccccc3)C(=O)N2[C@H]1C(=O)O [PENICILLIN G] |  | 27 |  | 8.7 | 5 |  | 1.4 ×10⁷ /M/s | 5.7 ×10⁵ /M/s | 4.4 | 45 | 1 ×10⁷ /M/s |  |  |  |  |  |  | 5.70
CCN1CCN(C(=O)N[C@@H](C(=O)N[C@@H]2C(=O)N3[C@@H]2SC(C)(C)[C@@H]3C(=O)O)c2ccccc2)C(=O)C1=O [PIPERACILLIN] |  | 0.54 | 1 (≈ 1.93 µM) |  |  | 4 (≈ 7.73 µM) | 2.7 ×10⁶ /M/s |  |  |  |  |  |  |  |  | 0.25 (≈ 0.483 µM) | 8 (≈ 15.5 µM) | 6.70
CC1(C)S[C@@H]2[C@H](NC(=O)[C@H](C(=O)O)c3ccsc3)C(=O)N2[C@H]1C(=O)O [TICARCILLIN] |  |  | 4 (≈ 10.4 µM) |  |  | 8 (≈ 20.8 µM) |  |  |  |  |  |  |  |  |  | 0.125 (≈ 0.325 µM) | 64 (≈ 166 µM) | 
